According to patent US20170261507A1, “Methods for Predicting and Monitoring Cancer Patients' Response to Teatment by Measuring Myeloid Derived Suppressor Cells (MDSCs)” (YISSUM RESEARCH DEVELOPMENT COMPANY OF THE HEBREW …, priority 2014, published 2017):

Key:
MDSCs [1] = experiment: BCG chronic inflammation mouse model: ROS and NO^− production by MDSCs; type: in vivo; conditions: splenic MDSCs, compared to inflamed-untreated mice
Experimental: (§1) Mice were injected intraperitoneally with 10 mg/kg body weight of Azoxymethan (AOM, purchased from Sigma-Aldrich (St. Louis, Mo., USA)) dissolved in physiological saline twice in two weeks intervals. Two weeks later, 2% dextran sulfate sodium (DSS, purchased from MP biochemicals Inc. (Santa Ana, Calif., USA)) was given in the drinking water over 7 days, followed by 14 days of regular water (15). This cycle was repeated twice. Animals were sacrificed and analyzed three weeks after the last treatment. To induce a pathology-free chronic inflammation, a previously described protocol subjecting mice to heat-killed Mycobacterium […] (BCG) treatment (16) was used.
(§2) Next, the immunoregulatory effects of 5FU and CPT11 were examined in a mouse model for chronic inflammation and associated immunosuppression (10), as described in the materials and method section above and in FIG. 13A. This experiment was performed in order to investigate whether the differential effects of the drugs are related to the presence of the tumor. Briefly, the mouse model for chronic inflammation was established by three repeated injections of heat-killed BCG bacteria. A day after the second BCG injection, mice were treated twice a week with 5FU, CPT11 or a 5FU/CPT11 combination. […] No changes in CD4^+Foxp3^+ Tregs percentage were detected (FIG. 13H), confirming that these chemotherapies specifically affect MDSCs.

cleaved caspase-3 [2] = experiment: BCG chronic inflammation mouse model: cleaved caspase-3 in MDSCs; type: in vivo; conditions: compared to inflamed-untreated mice
Gr1^+CD11b^+ MDSCs = experiment: MDSC accumulation in colon, spleen and PBLs of CRC-mice; type: in vivo, mouse
NK-cells = experiment: BCG chronic inflammation mouse model: NK-cell mediated clearance of allogeneic cells; type: in vivo; conditions: spleen and PBLs of inflamed mice
MDSCs [3] = experiment: NO^− and ROS production by MDSCs of treated CRC-mice (flow cytometry); type: in vivo, mouse
Experimental: Three weeks after the second DSS treatment mice were sacrificed and spleens were analyzed.

[4] = tested on: MDSCs isolated from spleens of CRC mice; experiment: Cleaved caspase-3 in ex vivo cultured MDSCs, DCs and macrophages; type: cell-based, mouse
MDSCs [5] = experiment: Myeloid cell differentiation in vivo in CRC-mice
Experimental: Isolated mouse splenocytes and peripheral blood lymphocytes (PBLs) were subjected to cell surface staining as previously described (16), using the following antibodies (Biolegend): FITC-labeled anti-Gr1, and anti-CD11c; PE-labeled anti-F4/80, anti-CD3s, and anti-mNKp46; and biotinylated anti-CD11b detected with streptavidin-Cy5. Intracellular staining for CD247 was performed as previously described (16) by using FITC-labeled anti-CD247 or biotinylated anti-CD247 (lone H146), the latter detected with streptavidin-Cy5. Foxp3 staining was performed according to the manufacturer's instructions (Miltenyi Biotec). Cleaved caspase-3 staining was performed using primary Rabbit anti-cleaved caspase-3 (Cell Signaling Technology, Asp175) and secondary FITC-horse anti-Rabbit antibody (Thermo Scientific).
(§5) For that purpose the expression of the S100A8/9 pro-inflammatory proteins was assessed.

S100A8/9 = conditions: MDSCs from spleen of CRC-mice
Experimental: Cells isolated from the spleen or colon were analyzed by Western blotting for the expression of various proteins as previously described (16). The antibodies used for immunoblotting were: anti-S100A9, anti-S100A8, and anti-αTubulin. Specific antibodies were detected by anti-rabbit or anti-goat antibodies conjugated to horseradish peroxidase (Jackson Immunoresearch), followed by enhanced chemiluminescence and exposure at blotting reader (Bio-Rad software).
as §5

TNFα, S100A9 = experiment: TNFα and S100A9 mRNA in ex vivo cultured MDSCs (Real Time PCR); type: cell-based, mouse; conditions: 3 days
T-cells [6] = experiment: CFSE T-cell proliferation assay, splenocytes of CRC-mice; type: in vivo, mouse; conditions: CFSE-labeled Thy1.2^+ T-cells, TCR-CD28 mediated activation, vs untreated CRC-mice
Experimental: (§3) Splenocytes or purified T-cells isolated by a magnetic column separation system (Miltenyi Biotec) were labeled with 5 M CFSE (Invitrogen) and subjected to TCR-mediated activation as previously described (16). Next, the effect of the given chemotherapies on the immune status was evaluated. This was performed by testing the function of the whole T-cell population (FIG. 9J) as well as the CD8^+ T-cells (FIG. 9K) in all experimental groups along with measurements of the expression levels of CD247 in CD3^+ (FIG. 9L) and in CD8^+ T-cells (FIG. 9M). T-cell proliferative response was assessed by monitoring cell divisions of gated CFSE-labeled Thy1.2^+ (CD90^+) T-cells upon TCR-CD28 mediated activation.

T-cells [7] = experiment: BCG chronic inflammation mouse model: T-cell proliferation; type: in vivo; conditions: splenocytes of inflamed mice
Experimental: as §1
Splenocytes or purified T-cells isolated by a magnetic column separation system (Miltenyi Biotec) were labeled with […] CFSE (Invitrogen) and subjected to TCR-mediated activation as previously described (16).
(§4) Next, it was assessed whether the 5FU and CPT11 opposite effects on MDSCs have different impacts on the host's immune competence. […] Since NK-cell activity is mediated via natural cytotoxicity receptors (NCRs), which associate with and depend on CD247, NK-cell in vivo function was assessed by monitoring the clearance of adoptively transferred allogeneic cells.

cleaved caspase-3 [8] = experiment: Cleaved caspase-3 in splenic MDSCs of treated CRC-mice; type: in vivo, mouse
Experimental: Cleaved caspase-3 staining was performed using primary Rabbit anti-cleaved caspase-3 (Cell Signaling Technology, Asp175) and secondary FITC-horse anti-Rabbit antibody (Thermo Scientific).
Therefore, Splenic MDSCs from each group were analyzed for the expression of activated (cleaved) caspase-3 by flow cytometry analysis. […] Cleaved caspase-3 levels were then evaluated on the primary MDSCs, differentiated CD11c^+CD11b^+DCs and F4/80^+CD11b^+ macrophages.

MDSC = conditions: mice, reference (11); cited from earlier work
[9] = tested on: MDSCs isolated from spleens of CRC-mice; experiment: NO^− and ROS production in ex vivo cultured MDSCs; type: cell-based, mouse; conditions: 2.5 μmol/L, 24 h
CD247 [10] = experiment: CD247 expression in T-cells of CRC-mice; type: in vivo, mouse; conditions: splenocytes of CRC-mice
Experimental: as §3, with “Next,” for “Splenocytes or purified T-cells isolated by a magnetic column separation system (Miltenyi Biotec) were labeled with 5 M CFSE (Invitrogen) and subjected to TCR-mediated activation as previously described (16). Next,”

MDSCs [11] = experiment: BCG chronic inflammation mouse model: MDSC levels; type: in vivo; conditions: PBLs and spleen, compared to inflamed-untreated mice
Experimental: as §1, §2

CD247 [12] = experiment: BCG chronic inflammation mouse model: CD247 expression in NK-cells; type: in vivo; conditions: chronically inflamed mice
Experimental: as §1, §4

CRC-derived MDSC = experiment: Ex vivo GM-CSF mediated myeloid-cell differentiation; type: cell-based, mouse; conditions: 10 ng/ml GM-CSF, 72 h, vs GM-CSF only
CD247 [13] = experiment: BCG chronic inflammation mouse model: CD247 expression in T-cells; type: in vivo; conditions: spleen and PBLs of inflamed mice
Experimental: as §1, §4

O=c1[nH]cc(F)c(=O)[nH]1 [5FU, 5-fluoruracil]
ROS and NO^− production (MDSCs [1]): significantly reduced
cleaved caspase-3 levels (cleaved caspase-3 [2]): elevated cleaved caspase-3 levels
MDSC numbers / infiltration in colon (Gr1^+CD11b^+ MDSCs; lamina propria and epithelium, flow cytometry, vs untreated CRC-mice): significantly reduced MDSC infiltration
MDSC numbers in spleens (Gr1^+CD11b^+ MDSCs; vs untreated, CPT11 or 5FU/CPT11 treated CRC-mice): significantly decreased MDSC numbers
NK-cell activity (clearance of adoptively transferred allogeneic cells) (NK-cells): complete recovery of NK-cell activity
NO^− production (MDSCs [3]; lamina propria and epithelial MDSCs, vs untreated CRC mice): significant reduction of NO^− production
NO^− and ROS production (MDSCs [3]; splenic MDSCs, compared to untreated CRC-mice): significantly reduced NO^− and ROS production
5FU-induced apoptosis (cleaved caspase-3), DCs and macrophages ([4]; ex vivo, 10 ng/ml GM-CSF, 0, 1.25, 2.5, and 5, 3 days): insensitive
5FU-induced apoptosis (cleaved caspase-3), primary MDSCs ([4]; ex vivo, 10 ng/ml GM-CSF, 0, 1.25, 2.5, and 5 mol/L, 3 days): evident only in non-differentiated MDSCs
cleaved caspase-3 expression (MFI) in monocytic and granulocytic MDSCs ([4]; ex vivo, 2.5, 3 days, monocytic population more sensitive): enhanced cleaved caspase-3 expression
cleaved caspase-3 in purified cultured MDSCs ([4]; ex vivo, various doses, 3 days, dose-dependent): cleaved caspase-3 up-regulation
tumor load within the colon (hematoxylin-eosin histopathology) (CRC-mice; monotherapy for three weeks, vs untreated CRC mice): decreased tumor load and recovery of colon architecture
histopathological analysis of colon sections (hematoxylin-eosin) (CRC-mice; three weeks after second DSS treatment): only few aberrant crypt foci and tumors
matured antigen presenting cells (CD80 and MHCII expression) (MDSCs [5]): induced CD80 and MHCII expression
myeloid cell differentiation in vivo (DCs and macrophages) (MDSCs [5]): significant shift towards differentiated DCs and macrophages
S100A8/9 mRNA and protein levels (S100A8/9): significant decrease in S100A8/9 mRNA and protein levels
mRNA levels of TNFα and S100A9 (TNFα, S100A9): decreased levels of these factors
T-cell proliferative ability (T-cells [6]): did not affect T-cell proliferation
T-cell proliferation (T-cells [7]): significant recovery
cleaved caspase-3 expression in spleen MDSCs (cleaved caspase-3 [8]): significant increased cleaved caspase-3 expression
MDSC apoptosis and tumor regression (MDSC): selective MDSC apoptosis and tumor regression
NO^− or ROS production in purified cultured MDSCs [9]: did not alter NO^− or ROS production
CD247 expression levels in T-cells (CD247 [10]): elevated levels
MDSC levels (MDSCs [11]): significantly reduced MDSC levels
CD247 expression in NK-cells (CD247 [12]): almost completely recovered
GM-CSF mediated CRC-derived MDSC differentiation (CRC-derived MDSC): enabled MDSC differentiation to DCs and macrophages
CD247 expression in T-cells (CD247 [13]): significant recovery of CD247 expression
